This note sets out measurements from publication PMC9080097, “Identification of absorbed constituents and evaluation of the pharmacokinetics of main compounds after oral administration of yindanxinnaotong by UPLC-Q-TOF-MS and UPLC-QqQ-MS” (RSC Advances, 2018).

Data set [1] is described as follows: Pharmacokinetics study in rats after oral administration of YDXNT (UPLC-QqQ-MS of plasma).
Experimental: Six milliliters of 75% methanol was added to two milliliters of prepared plasma and then vortexed for 60 s. The mixture was centrifuged at 4000 rpm for 10 min at 4 °C. The supernatant was transferred to another EP tube and dried using a pressure blowing concentrator. The residue was redissolved with 200 μL of 75% methanol, vortexed for 60 s, and then centrifuged at 13 000 rpm for 10 min. To an aliquot of 200 μL plasma, 120 μL of 0.2 mol L^−1 acetic acid–sodium acetate buffer solution (pH = 4.6), 100 μL of the IS baicalein and 80 μL of 980 U mL^−1 β-glucuronidase and sulfatase was added and then vortexed for 1 min. The mixture was hydrolyzed in a water bath at 37 °C for 30 min, and 600 μL acetone was added to stop the hydrolysis. The sample was cooled, followed by vortexing for 2 min and then centrifugation at 13 000 rpm for 10 min. The supernatant fluid was evaporated to dryness under a flow of nitrogen gas.
Chromatographic analysis was performed using an Agilent 1290 Series UPLC from Agilent Technologies (Palo Alto, CA, USA), equipped with a quaternary pump an online degasser, auto-sampler and column oven. Chromatographic separation was performed on the Agilent ZORBAX SB-Aq C18 column (100 mm × 2.1 mm, 1.8 μm, Agilent, USA). The analytical column temperature was maintained at 30 °C and eluted with a mobile phase comprising 0.1% formic acid in water (A) and acetonitrile (B) using the following gradient program: 25–90% B from 0 to 1 min, 90% B from 1 to 3.5 min, and 90–25% B from 3.5 to 5 min at a flow rate of 0.3 mL min^−1. The equilibration time was 5 min, and the injection volume of sample and reference constituents was 5 μL.
Mass spectrometry was performed on the Agilent 6490 triple-quadrupole mass spectrometer (Palo Alto, CA, USA) equipped with an atmospheric pressure chemical ionization (APCI) interface. The mass spectrometer was set in negative ionization mode, with the capillary voltage set at 3500 V. The other parameters in the source were set as follows: desolvation gas flow, 15 L min^−1; source temperature, 290 °C; N2 sheath gas temperature, 350 °C; nebulizer gas (N2) pressure, 50 psi; flow, 12 L min^−1. The mass spectrometer scanned in multiple reaction monitoring (MRM) mode.
Six male rats were used in the pharmacokinetics study. All the rats were orally administered 2.4 g kg^−1 YXCNT suspended in an aqueous solution of 0.5% carboxymethyl cellulose sodium (QCT: 4.118 mg; KMF: 5.067 mg; ISR: 0.965 mg; GA: 1.416 mg; GB: 0.680 mg; GC: 0.796 mg; BB: 0.326 mg; TSIIA: 0.624 mg; SAB: 3.84 mg). After dosing for 0 min, 5 min, 15 min, 20 min, 30 min, 45 min, 1 h, 1.5 h, 2 h, 3 h, 4 h, 6 h, 8 h, 12 h, and 24 h, blood samples (500 μL) were drawn from the retro-orbital plexus of each mouse and collected in heparinized tubes according to the specific schedule. All the collected blood samples were immediately centrifuged at 13 000 rpm for 10 min. The plasma layer was transferred to clean tubes and stored at −20 °C until analysis. The plasma concentrations of QCT, ISR, KMF, GA, GB, GC, BB, TSIIA, and SAB were expressed as the mean ± standard deviation (SD), and the mean concentration–time curve was plotted. Non-compartmental pharmacokinetic parameters were computed using DAS 2.1.1 software.
Data set [2] is described as follows: Stability of the analytes in rat plasma QC samples (short-term, autosampler, freeze-thaw, long-term). The conditions noted are these: n = 6.
[3] abbreviates: rat plasma, oral YDXNT 4.8 g kg^−1 d^−1 (2.4 g kg^−1 in source), n = 6, mean ± SD.
The mark [4] stands for this setting: rat plasma, oral YDXNT 4.8 g kg^−1 d^−1 (2.4 g kg^−1 in source), n = 6, non-compartmental.
Setting [5] is: male, Sprague-Dawley, rat, plasma, po, 4.8 g kg^−1 d^−1.
The mark [6] stands for this setting: 1 ng mL^−1, -20°C for four weeks.
Setting [7] is: 1 ng mL^−1, room temperature for 6 h before sample preparation.
The mark [8] stands for this setting: 1 ng mL^−1, room temperature for 12 h in the autosampler after sample preparation.
Setting [9] is: 1 ng mL^−1, three freeze-thaw cycles -20°C to ambient temperature.
Setting [10] is: 10 ng mL^−1, -20°C for four weeks.
[11] abbreviates: 10 ng mL^−1, room temperature for 6 h before sample preparation.
[12] abbreviates: 10 ng mL^−1, room temperature for 12 h in the autosampler after sample preparation.
Where [13] appears, read: 10 ng mL^−1, three freeze-thaw cycles -20°C to ambient temperature.
Setting [14] is: 100 ng mL^−1, -20°C for four weeks.
Where [15] appears, read: 100 ng mL^−1, room temperature for 6 h before sample preparation.
The mark [16] stands for this setting: 100 ng mL^−1, room temperature for 12 h in the autosampler after sample preparation.
The mark [17] stands for this setting: 100 ng mL^−1, three freeze-thaw cycles -20°C to ambient temperature.

Consider salvianolic acid B [SAB], for which the C max in data set [1] (setting [3]) was determined as 32.00 ± 15.43 ng/mL. In data set [1] (setting [3]), this compound returned a T max of 0.75 ± 0.18 h. Besides, in data set [1] (setting [4]), the “AUC0–INF” value came out at 135.72 ± 64.24. The MRT in data set [1] (setting [4]) came to 9.46 ± 2.37 h. Also, the “T 1/2” value in data set [1] (setting [4]) is recorded as 12.17 ± 3.33 h. For the same compound, in data set [1] (rat plasma, oral YDXNT 4.8 g kg^−1 d^−1 (2.4 g kg^−1 in source), n = 6, sampling to 24 h, non-compartmental), the “AUC0–t” value was found to be 118.17 ± 58.46. Moreover, the “Long-term stability Accuracy” value in data set [2] (5 ng mL^−1, -20°C for four weeks) is 102.76 ± 5.39%; in data set [2] (50 ng mL^−1, -20°C for four weeks), 95.72 ± 6.59%; in data set [2] (500 ng mL^−1, -20°C for four weeks), 97.38 ± 4.39%. In addition, the “Short-term stability Accuracy” value in data set [2] (5 ng mL^−1, room temperature for 6 h before sample preparation) was found to be 97.28 ± 2.19%; in data set [2] (50 ng mL^−1, room temperature for 6 h before sample preparation), 96.44 ± 6.33%; in data set [2] (500 ng mL^−1, room temperature for 6 h before sample preparation) it was 95.76 ± 8.18%. Also, the “Autosampler stability Accuracy” value is on record as 96.38 ± 8.63% in data set [2] (5 ng mL^−1, room temperature for 12 h in the autosampler after sample preparation); 96.41 ± 5.79% in data set [2] (50 ng mL^−1, room temperature for 12 h in the autosampler after sample preparation); 93.17 ± 7.35% in data set [2] (500 ng mL^−1, room temperature for 12 h in the autosampler after sample preparation). Moreover, the “Freeze–thaw strability (three cycles) Accuracy” value (“Freeze–thaw strability” below) in data set [2] (5 ng mL^−1, three freeze-thaw cycles -20°C to ambient temperature) is 99.24 ± 6.68%; in data set [2] (50 ng mL^−1, three freeze-thaw cycles -20°C to ambient temperature) it was 98.88 ± 3.59%; in data set [2] (500 ng mL^−1, three freeze-thaw cycles -20°C to ambient temperature) it was 95.47 ± 4.92%.

In data set [1] (setting [5]), `Cc1coc2c1C(=O)C(=O)c1c-2ccc2c1CCCC2(C)C` [TSIIA, tanshinone IIA] registered a total exposure AUC(0-inf) of 183 ± 77.4 ng·h/mL. The same compound came in with an exposure AUC(0-t) in data set [1] (setting [5]) of 167 ± 69.5 ng·h/mL. Also, the concentration in data set [1] (setting [5]) peaked (Cmax) at 38.3 ± 17.4 ng/mL. The compound also yielded an MRT in data set [1] (setting [5]) of 9.89 ± 1.5 h. Also, the Tmax in data set [1] (setting [5]) came out at 0.25 ± 0.23 h. Besides, the half-life in data set [1] (setting [5]) is 7.04 ± 2.18 h. Further, the results for the “Long-term stability Accuracy” value in data set [2] (setting [6]), in data set [2] (setting [10]) and in data set [2] (setting [14]) were 101.23 ± 8.76%, 103.21 ± 4.14% and 94.24 ± 6.63%, respectively. Also, the “Short-term stability Accuracy” value is 96.50 ± 6.47% in data set [2] (setting [7]), 101.22 ± 2.09% in data set [2] (setting [11]) and 95.96 ± 3.11% in data set [2] (setting [15]). In addition, the “Autosampler stability Accuracy” value in data set [2] (setting [8]) was 102.65 ± 5.28%; in data set [2] (setting [12]) it was 95.96 ± 3.11%; in data set [2] (setting [16]), 99.15 ± 5.73%. Moreover, the “Freeze–thaw strability” value amounted to 100.31 ± 4.27% in data set [2] (setting [9]), 101.22 ± 2.09% in data set [2] (setting [13]) and 95.97 ± 2.36% in data set [2] (setting [17]).

`O=c1c(O)c(-c2ccc(O)cc2)oc2cc(O)cc(O)c12` [KMF, kaempferol] gave a total exposure AUC(0-inf) in data set [1] (setting [5]) of 539 ± 82.3 ng·h/mL. The compound also gave an AUC(0-t) in data set [1] (setting [5]) of 401 ± 84.4 ng·h/mL. This compound yielded a maximum concentration (Cmax) in data set [1] (setting [5]) of 49.9 ± 13.8 ng/mL. Besides, the MRT in data set [1] (setting [5]) came to 17.1 ± 4.42 h. The Tmax in data set [1] (setting [5]) came to 0.5 ± 0.23 h. Also, in data set [1] (setting [5]), the half-life is 8.19 ± 2.42 h. Further, the “Long-term stability Accuracy” value in data set [2] (setting [6]) is 98.70 ± 9.35%; in data set [2] (setting [10]) it was 100.48 ± 7.44%; in data set [2] (setting [14]), 95.21 ± 5.96%. The “Short-term stability Accuracy” value is reported as 96.50 ± 6.47% in data set [2] (setting [7]), 101.22 ± 2.09% in data set [2] (setting [11]) and 97.10 ± 3.69% in data set [2] (setting [15]). In addition, the results for the “Autosampler stability Accuracy” value in data set [2] (setting [8]), in data set [2] (setting [12]) and in data set [2] (setting [16]) were 99.17 ± 4.39%, 102.65 ± 5.28% and 95.96 ± 3.11%, respectively. Further, the “Freeze–thaw strability” value was 101.23 ± 8.76% in data set [2] (setting [9]), 103.21 ± 4.14% in data set [2] (setting [13]) and 94.24 ± 6.63% in data set [2] (setting [17]).

`CC(C)(C)[C@]1(O)CC2OC(=O)CC23C(=O)OC2OC(=O)[C@H](O)C231` (stereo partly drawn) [BB, bilobalide] came in with an AUC(0-inf) in data set [1] (setting [5]) of 384 ± 51.5 ng·h/mL. In data set [1] (setting [5]), this compound registered an AUC(0-t) of 366 ± 48.4 ng·h/mL. Moreover, the Cmax in data set [1] (setting [5]) came out at 48.7 ± 12.3 ng/mL. The same compound registered a mean residence time (MRT) in data set [1] (setting [5]) of 9.62 ± 3.18 h. For the same compound, in data set [1] (setting [5]), the Tmax turned out to be 0.75 ± 0.5 h. The compound further showed a half-life in data set [1] (setting [5]) of 5.55 ± 2.67 h. In addition, the “Long-term stability Accuracy” value in data set [2] (setting [6]) came to 99.15 ± 5.73%; in data set [2] (setting [10]) it was 96.38 ± 8.63%; in data set [2] (setting [14]) it was 95.54 ± 7.76%. The results for the “Short-term stability Accuracy” value in data set [2] (setting [7]), in data set [2] (setting [11]) and in data set [2] (setting [15]) were 98.10 ± 7.83%, 99.78 ± 5.25% and 94.05 ± 2.61%, respectively. Also, the results for the “Autosampler stability Accuracy” value in data set [2] (setting [8]), in data set [2] (setting [12]) and in data set [2] (setting [16]) were 103.47 ± 6.75%, 95.29 ± 2.77% and 97.44 ± 3.13%, respectively. Besides, the “Freeze–thaw strability” value in data set [2] (setting [9]) is given as 99.85 ± 6.27%; in data set [2] (setting [13]) it was 98.88 ± 3.59%; in data set [2] (setting [17]), 95.47 ± 4.92%.

In general, MRT refers to a mean duration of stay, worked out from the concentration-time curve. Broadly, the AUC(0-inf) is the area under the concentration-time curve extrapolated to infinity. In general, AUC(0-t) refers to the area under the concentration-time curve up to a stated or last time point. In general, Cmax refers to the highest concentration seen after dosing. The term Tmax denotes the time from dosing to the highest level. The half-life is how long it takes for the measured level to halve. A high value points to slow decline.
